Measured values published in patent US20150025131A1 (priority 2013, published 2015).
In brackets after ≈: the same amount, converted by molar mass. Entries after “also recorded” stand apart in the source; their conditions may differ. Where two headings read alike, the source gives them in different places.

Assays:
[1] = test system: IL-1β production; assay: IL-1β production from PMA differentiated, LPS activated THP-1 cells (ELISA); format: cell-based; conditions: Homo sapiens, 18 h, read-out: inhibition of IL-1β production (IC50)
Method: THP-1 (human monocytic leukemia) cells were maintained in RPMI-1640 supplemented with 10% FBS, 2 mmol/L glutamine, 5.5 mmol/L glucose, 50 μmol/L mercaptoethanol, 1 mmol/L sodium pyruvate, and 10 mmol/L HEPES and incubated at 37° C. in 5% CO2. Cells were grown in […] culture flask until they attained 70% confluency. Cells were then plated in 24-well tissue culture plates at a concentration of 2.5×10^5 cells/mL. Cells were differentiated into macrophages using PMA at a final concentration of 20 ng/mL and further incubated at 37° C. in 5% CO2 environment for 24 h. […] After addition of the compound cells were then incubated for 4 h for TNF-α production and 18 h for IL-1β production at 37° C. in 5% CO2. The supernatants were harvested and analyzed for the level of TNF-α and IL-1β, by human TNF-α and IL-1β Duo set ELISA kits, and according to the manufacturer's instructions.

[2] = test system: ROS production from human peripheral whole blood phagocytes; assay: Luminol enhanced chemiluminescence oxidative burst, whole blood; format: cell-based
Method: (§1) Intracellular effect was determined using human peripheral whole blood phagocytes and isolated neutrophils and from mice peritoneum macrophages, where luminol-enhanced chemillumenescence assay was applied. The effect on myeloperoxidase independent ROS production was determined using lucigenin on murine macrophages RAW.267 cells.
(§2) Table 2. […] 267 cells (murine macrophages). DPI is used as standard drug. Reading presents mean±SD of three determinations.
(§3) Luminol enhanced chemiluminescence technique was applied to study the effect of compound on ROS from phagocytes, Using whole blood, neutrophil and macrophages Briefly, 25 μL diluted whole blood (1:50 dilution in sterile HBSS^++) or 25 μL of PMNs (1×10^6), or 25 μL of isolated macrophages (1×10^6) were incubated with 25 μL of compound in triplicates and using three different concentrations (1, 10 and 100 μg/mL) using white 96 wells plates. Wells received HBSS^++ and cells only without compound served as positive control. 25 μL of serum opsonized zymosan-A (SOZ), followed by 25 μL luminol (7×10^−5 M), was added to each well to maintain a volume of 100 μL/well. Plates were then incubated at 37° C. for 30 minutes in the thermostated chamber of the luminometer. Results were monitored as relative light unit (RLU) reading, with peak and total integral values set with repeated scans at 60 seconds intervals, and 1 second points measuring time.

[3] = test system: ROS production from mice peritoneal macrophages; assay: Luminol enhanced chemiluminescence oxidative burst, mice peritoneal macrophages; format: cell-based; conditions: Mus musculus, Peritoneal macrophage, serum opsonized zymosan, read-out: Myeloperoxidase dependent Oxidative Burst (IC50 μg/mL) Macrophages
Method: as §1, §2
NMRI mice of 25 to 30 gm weight were injected aseptically with 1 mL of heat inactivated fetal bovine serum (FBS) in the peritoneum cavity, using sterile 1 mL syringe and mice were kept for further 72 h. […] Cells were counted and concentration was adjusted to 1×10^6/mL for chemiluminescence assay.
as §3, with “Wells received HBSS^++ and cells only without compound served as positive control. 25 μL of serum opsonized zymosan-A (SOZ), followed by 25 μL luminol (7×10^−5 M), was added to each well to maintain a volume of 100 μL/well. Plates were then incubated at 37° C. for 30 minutes in the thermostated chamber of the luminometer.” left out

[4] = test system: ROS production from PMA activated RAW. 267 cells (murine macrophages); assay: Lucigenin enhanced (myeloperoxidase independent) oxidative burst; format: cell-based; conditions: Mus musculus, Macrophage
Method: as §1, with “cells. […] Table 2. […] 267 cells (murine macrophages). DPI is used as standard drug. Reading presents mean±SD of three determinations.” for “cells.”

[5] = test system: non-activated Jurkat cell proliferation; assay: Jurkat T cell proliferation; format: cell-based; conditions: Homo sapiens; non-activated Jurkat cells; read-out: Jurkat T cell Proliferation (IC50 μg /mL)
Method: In order to monitor the effect of this compound on cellular immune response particularly on T cells, the compound was tested on thymidine incorporated T cell proliferation assay.

[6] = test system: serum peroxide; assay: Adjuvant induced arthritis model, serum peroxide; format: in vivo, Sprague Dawley rats; conditions: AIA rats, daily intraperitoneal; Patuletin 25 mg/kg, indomethacin 5 mg/kg
Method: (§4) All studies were carried out using Female Sprague Dawley (SD) rats weighing 150-250 gms. Animals were kept at 21±2° C. and on a 12-h light/dark cycle, received standardized pelleted diet and tap water. Experiments were performed under the ethical guidelines of the International Association for the study of pain in conscious animals. Each group contains 12 animals with randomly distributed weights into each treatment group.
Arthritis was induced by injecting freshly prepared 100 μL of 1 mg suspension of lyophilized Mycobacterium tuberculosis H37Ra (MT H37Ra; DIFCO Laboratories, Detroit, Mich., USA), subcutaneously at the rat tail base using sterile hypodermic needle. […]
Peroxide (PO) and nitric oxide (NO), in serum were determined in the serum samples of both the normal and arthritic groups, using quantitative colorimetric assay kits, i.e., the Quantichrom ™ Nitric Oxide Assay Kit, and the Quantichrome™ Peroxide assay kit Diox-250 (BioAssay Systems, Hayward, Calif., USA). […] The samples were analyzed in duplicates using 96-well plate and the plate was read at 540 nm. The Quantichrome™ Peroxide assay kit Diox −250 system is an improved method which utilizes the oxidation of Fe^++ by peroxide present in the analyzed sample resulting in formation of purple complex that gives the accurate measure of peroxide level in the sample when read at 540-610 nm.

[7] = test system: knee joints of arthritic rats; assay: Adjuvant induced arthritis model, histopathology of knee joints (H & E); format: in vivo, Sprague Dawley rats; conditions: H & E staining
Method: as §4
Arthritis was induced by injecting freshly prepared 100 μL of 1 mg suspension of lyophilized Mycobacterium tuberculosis H37Ra (MT H37Ra; DIFCO Laboratories, Detroit, Mich., USA), subcutaneously at the rat tail base using sterile hypodermic needle. Inoculation was carried out under anesthesia with a combination of 20 mg/kg ketamine and 5 mg/kg xylazine, injected intraperitoneally. Compound and the reference drug were administered daily, intraperitoneally using sterile syringes. The positive control received vehicle (5% DMSO+PBS) or saline only; treatment groups received test compounds (25 mg/kg), whereas reference group received indomethacin (5 mg/kg). The doses of the test compounds were selected after preliminary dose finding studies. The treatment was started on the same day after vaccination.
The animals were sacrificed at the end of the experiment and samples were taken from the knee joints. Sample fixation were done using 10% formalin following decalcification. The samples were then processed, embedded, cut, mounted and stained with hematoxylin and eosin (H & E) dye for microscopic evaluation.

## COc1c(O)cc2oc(-c3ccc(O)c(O)c3)c(O)c(=O)c2c1O [Patuletin, 3,5,7,3′,4′-pentahydroxy-6-methoxy flavones]
[1]
  IC50: > 50 µg/mL
[2]; luminol enhanced, serum opsonized zymosan, read-out: Myeloperoxidase dependent Oxidative Burst (IC50 μg/mL) Whole blood
  IC50: 3.5 ± 0.5 µg/mL
[2]; read-out: suppression of ROS production from whole blood (IC50), unit inferred
  IC50: 3.5 µg/mL
[3]
  IC50: 1.9 µg/mL
[4]; compared to DPI as standard drug, read-out: inhibition of extracellular ROS species (IC50), unit inferred
  IC50: 0.3 µg/mL
[4]; lucigenin enhanced, PMA activated RAW. 267 cells, read-out: Myeloperoxidase independent Oxidative Burst (IC50 μg/mL) on macrophages
  IC50: 0.3 ± 0.03 µg/mL
[5]
  IC50: 3.47 µg/mL (≈ 10.4 µM)
[6]
  level of peroxide in serum versus arthritic control group: decrease; also recorded: non-significant reduction
[7]
  histopathology of knee joints (in words) versus arthritic control rats: less infiltration of lymphocytes and minimal bone destruction
[7]; normal control score 0, arthritic control score 4
  histopathology score of knee joints: 2
